Data as given in ChEMBL document CHEMBL6071202, “Design, Synthesis, and Biological Evaluation of 3-Amino-pyrazine-2-carboxamide Derivatives as Novel FGFR Inhibitors” (ACS Med Chem Lett, 2024).
pIC50: −log10 of the molar value.

What was measured:
[1] = target: T1, Receptor-type tyrosine-protein kinase FLT3 (Homo sapiens, UniProt P36888); assay: Inhibition of FLT3 (unknown origin) by immobilized metal ion affinity-based fluorescence polarization
T1 sequence (P36888 whole entry): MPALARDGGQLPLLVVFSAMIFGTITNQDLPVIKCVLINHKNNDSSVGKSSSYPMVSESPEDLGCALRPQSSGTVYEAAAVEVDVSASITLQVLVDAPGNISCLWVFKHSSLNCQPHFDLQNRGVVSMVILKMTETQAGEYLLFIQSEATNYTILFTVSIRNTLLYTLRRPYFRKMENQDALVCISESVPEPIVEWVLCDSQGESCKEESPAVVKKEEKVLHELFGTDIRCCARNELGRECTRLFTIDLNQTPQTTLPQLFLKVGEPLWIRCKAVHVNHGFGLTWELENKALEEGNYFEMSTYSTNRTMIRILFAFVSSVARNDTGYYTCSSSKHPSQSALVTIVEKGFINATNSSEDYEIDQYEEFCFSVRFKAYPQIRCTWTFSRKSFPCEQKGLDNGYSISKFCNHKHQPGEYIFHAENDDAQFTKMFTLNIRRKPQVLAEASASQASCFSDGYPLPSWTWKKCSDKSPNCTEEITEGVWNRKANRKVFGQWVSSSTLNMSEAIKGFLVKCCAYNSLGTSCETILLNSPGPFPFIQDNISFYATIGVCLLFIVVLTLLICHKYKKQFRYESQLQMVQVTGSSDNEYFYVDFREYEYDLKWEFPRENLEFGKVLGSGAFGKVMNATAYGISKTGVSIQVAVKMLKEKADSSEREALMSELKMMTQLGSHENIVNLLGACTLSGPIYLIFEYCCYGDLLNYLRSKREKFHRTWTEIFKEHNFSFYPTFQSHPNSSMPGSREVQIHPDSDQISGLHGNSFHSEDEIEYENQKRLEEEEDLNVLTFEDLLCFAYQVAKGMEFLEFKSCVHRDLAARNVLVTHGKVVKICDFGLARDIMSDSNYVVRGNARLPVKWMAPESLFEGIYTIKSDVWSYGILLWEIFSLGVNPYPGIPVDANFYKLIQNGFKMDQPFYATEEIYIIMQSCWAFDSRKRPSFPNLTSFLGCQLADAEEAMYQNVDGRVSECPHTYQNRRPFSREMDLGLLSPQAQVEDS

[2] = target: Fibroblast growth factor receptor 2 (Homo sapiens, UniProt P21802); assay: Inhibition of FGFR2 (unknown origin)
Sequence of Fibroblast growth factor receptor 2 (P21802 whole entry): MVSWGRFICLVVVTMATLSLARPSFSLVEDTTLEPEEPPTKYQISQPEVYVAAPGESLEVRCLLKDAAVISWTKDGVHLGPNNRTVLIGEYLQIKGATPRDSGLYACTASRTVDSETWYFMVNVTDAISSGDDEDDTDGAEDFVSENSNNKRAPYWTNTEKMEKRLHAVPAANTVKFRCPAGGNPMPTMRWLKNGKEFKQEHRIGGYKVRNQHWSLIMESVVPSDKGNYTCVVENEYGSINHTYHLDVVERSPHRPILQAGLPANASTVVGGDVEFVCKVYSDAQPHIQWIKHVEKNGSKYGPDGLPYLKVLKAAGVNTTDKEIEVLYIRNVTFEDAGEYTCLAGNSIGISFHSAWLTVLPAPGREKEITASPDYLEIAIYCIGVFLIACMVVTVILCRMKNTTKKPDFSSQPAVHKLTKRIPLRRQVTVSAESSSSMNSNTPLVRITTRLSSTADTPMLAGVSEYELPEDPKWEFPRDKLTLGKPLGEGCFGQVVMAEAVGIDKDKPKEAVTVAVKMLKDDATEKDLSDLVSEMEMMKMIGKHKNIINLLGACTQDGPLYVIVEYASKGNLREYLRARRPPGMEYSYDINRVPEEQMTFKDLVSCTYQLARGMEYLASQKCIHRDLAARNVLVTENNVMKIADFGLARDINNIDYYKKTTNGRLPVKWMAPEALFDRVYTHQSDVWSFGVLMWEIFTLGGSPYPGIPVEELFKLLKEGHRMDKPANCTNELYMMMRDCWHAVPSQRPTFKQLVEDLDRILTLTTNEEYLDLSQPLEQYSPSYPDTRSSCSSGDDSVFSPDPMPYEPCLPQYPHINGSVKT

pIC50 [1]: 8.22
pIC50 [2]: 6.92
Structure (SMILES): Nc1ncc(-c2ccncc2)nc1Nc1ccc2[nH]ccc2c1 [AKN-028]
